Measurements taken from ChEMBL document CHEMBL1141898, “Halogenated and isosteric cytisine derivatives with increased affinity and functional activity at nicotinic acetylcholine receptors” (Bioorg Med Chem Lett, 2005).

Key:
[1] = biological target: T1, Neuronal acetylcholine receptor; alpha3/beta4 (Rattus norvegicus) (UniProt P04757+P12392); assay: Binding affinity (Ki) for rat nicotinic acetylcholine receptor alpha3-beta4 subunits versus 0.5 nM [3H](1)-epibatidine; type: protein-complex assay
[2] = biological target: Neuronal acetylcholine receptor; alpha4/beta2 (Rattus norvegicus) (UniProt P09483+P12390); assay: Binding affinity (Ki) for rat brain nicotinic receptors […] alpha-4 and beta2 subunits versus 0.5 nM [3H](1)-epibatidine
[3] = biological target: T2, Acetylcholine receptor; alpha1/beta1/delta/gamma (Homo sapiens, UniProt P02708+P07510+P11230+Q07001); assay: Change in membrane potential in TE-671 cells expressing acetylcholine neuromuscular receptors; type: functional, cell-based
T2 sequence (P02708 whole entry): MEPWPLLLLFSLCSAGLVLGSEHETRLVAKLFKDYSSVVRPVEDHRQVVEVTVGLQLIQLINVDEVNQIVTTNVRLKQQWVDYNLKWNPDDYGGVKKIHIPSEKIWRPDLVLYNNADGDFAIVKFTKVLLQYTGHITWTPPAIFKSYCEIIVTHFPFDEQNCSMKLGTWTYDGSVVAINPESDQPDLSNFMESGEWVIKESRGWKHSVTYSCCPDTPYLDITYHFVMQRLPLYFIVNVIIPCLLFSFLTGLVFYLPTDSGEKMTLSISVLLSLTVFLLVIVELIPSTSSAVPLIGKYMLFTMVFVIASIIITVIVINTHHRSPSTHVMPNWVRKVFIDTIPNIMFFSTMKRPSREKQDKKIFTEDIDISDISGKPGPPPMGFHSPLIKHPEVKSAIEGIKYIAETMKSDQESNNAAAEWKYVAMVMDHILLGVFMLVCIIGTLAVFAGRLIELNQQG
T2 sequence (P07510 whole entry): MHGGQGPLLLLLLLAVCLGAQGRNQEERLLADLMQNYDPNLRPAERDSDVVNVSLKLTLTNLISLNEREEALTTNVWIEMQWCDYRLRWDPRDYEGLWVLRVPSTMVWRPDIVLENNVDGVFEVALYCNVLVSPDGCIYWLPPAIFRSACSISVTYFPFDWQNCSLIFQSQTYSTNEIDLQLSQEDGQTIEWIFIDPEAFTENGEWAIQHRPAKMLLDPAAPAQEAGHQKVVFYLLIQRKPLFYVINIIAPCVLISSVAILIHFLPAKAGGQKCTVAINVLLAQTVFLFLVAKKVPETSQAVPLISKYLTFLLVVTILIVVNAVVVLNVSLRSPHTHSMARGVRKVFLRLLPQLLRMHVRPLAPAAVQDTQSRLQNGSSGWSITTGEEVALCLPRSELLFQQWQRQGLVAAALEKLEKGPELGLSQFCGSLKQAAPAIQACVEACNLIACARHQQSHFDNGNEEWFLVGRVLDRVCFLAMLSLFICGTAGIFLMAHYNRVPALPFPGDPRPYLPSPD
T2 sequence (P11230 whole entry): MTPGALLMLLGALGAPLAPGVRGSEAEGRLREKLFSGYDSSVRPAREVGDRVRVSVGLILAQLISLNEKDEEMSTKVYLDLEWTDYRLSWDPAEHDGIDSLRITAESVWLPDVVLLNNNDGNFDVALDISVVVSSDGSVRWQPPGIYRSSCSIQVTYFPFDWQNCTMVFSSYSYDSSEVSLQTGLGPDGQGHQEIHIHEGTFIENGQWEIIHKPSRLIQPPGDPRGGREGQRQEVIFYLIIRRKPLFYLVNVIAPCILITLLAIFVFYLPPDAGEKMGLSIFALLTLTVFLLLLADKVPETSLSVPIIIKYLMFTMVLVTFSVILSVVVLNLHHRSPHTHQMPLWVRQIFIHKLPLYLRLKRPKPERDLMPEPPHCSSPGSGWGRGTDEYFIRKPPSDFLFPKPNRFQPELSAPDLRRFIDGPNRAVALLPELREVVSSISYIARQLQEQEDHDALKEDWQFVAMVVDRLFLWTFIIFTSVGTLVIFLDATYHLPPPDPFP
T2 sequence (Q07001 whole entry): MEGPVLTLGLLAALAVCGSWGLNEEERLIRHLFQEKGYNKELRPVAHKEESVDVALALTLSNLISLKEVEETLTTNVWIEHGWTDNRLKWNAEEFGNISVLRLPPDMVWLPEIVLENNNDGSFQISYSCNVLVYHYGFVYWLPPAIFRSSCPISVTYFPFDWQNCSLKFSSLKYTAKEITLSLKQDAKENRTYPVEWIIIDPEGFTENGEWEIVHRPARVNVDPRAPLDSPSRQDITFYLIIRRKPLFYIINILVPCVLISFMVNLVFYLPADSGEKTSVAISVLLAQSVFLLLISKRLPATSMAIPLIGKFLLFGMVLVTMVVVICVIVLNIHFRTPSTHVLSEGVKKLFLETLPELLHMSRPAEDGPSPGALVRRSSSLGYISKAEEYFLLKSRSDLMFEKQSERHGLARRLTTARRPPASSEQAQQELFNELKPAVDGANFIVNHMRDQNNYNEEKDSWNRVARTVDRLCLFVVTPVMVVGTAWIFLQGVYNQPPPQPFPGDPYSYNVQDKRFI

[4] = biological target: T2, Acetylcholine receptor; alpha1/beta1/delta/gamma; assay: Percentage efficacy in TE671 cells expressing acetylcholine neuromuscular receptor as change in membrane potential; type: functional, cell-based; conditions: TE-671
[5] = biological target: Neuronal acetylcholine receptor; alpha3/beta4 (Rattus norvegicus, UniProt P04757+P12392); assay: Effective concentration in KXalpha-3-beta-4R2 cells expressing rat nicotinic acetylcholine receptor alpha3-beta4 subunits; type: functional, cell-based
Neuronal acetylcholine receptor; alpha3/beta4, sequence (P04757 whole entry): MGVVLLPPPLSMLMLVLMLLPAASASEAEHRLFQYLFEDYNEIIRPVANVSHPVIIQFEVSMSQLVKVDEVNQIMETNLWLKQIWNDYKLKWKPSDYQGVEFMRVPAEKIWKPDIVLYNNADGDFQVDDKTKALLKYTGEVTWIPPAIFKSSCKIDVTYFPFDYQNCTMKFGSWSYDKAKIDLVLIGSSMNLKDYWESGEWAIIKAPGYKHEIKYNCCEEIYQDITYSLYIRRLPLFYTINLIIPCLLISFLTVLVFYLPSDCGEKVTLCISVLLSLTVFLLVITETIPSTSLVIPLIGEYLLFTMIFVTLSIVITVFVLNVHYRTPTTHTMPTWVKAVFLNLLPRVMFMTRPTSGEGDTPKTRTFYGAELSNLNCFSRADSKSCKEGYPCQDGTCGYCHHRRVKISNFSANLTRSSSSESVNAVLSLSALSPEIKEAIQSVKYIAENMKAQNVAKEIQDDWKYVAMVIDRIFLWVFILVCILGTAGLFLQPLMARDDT
Neuronal acetylcholine receptor; alpha3/beta4, sequence (P12392 whole entry): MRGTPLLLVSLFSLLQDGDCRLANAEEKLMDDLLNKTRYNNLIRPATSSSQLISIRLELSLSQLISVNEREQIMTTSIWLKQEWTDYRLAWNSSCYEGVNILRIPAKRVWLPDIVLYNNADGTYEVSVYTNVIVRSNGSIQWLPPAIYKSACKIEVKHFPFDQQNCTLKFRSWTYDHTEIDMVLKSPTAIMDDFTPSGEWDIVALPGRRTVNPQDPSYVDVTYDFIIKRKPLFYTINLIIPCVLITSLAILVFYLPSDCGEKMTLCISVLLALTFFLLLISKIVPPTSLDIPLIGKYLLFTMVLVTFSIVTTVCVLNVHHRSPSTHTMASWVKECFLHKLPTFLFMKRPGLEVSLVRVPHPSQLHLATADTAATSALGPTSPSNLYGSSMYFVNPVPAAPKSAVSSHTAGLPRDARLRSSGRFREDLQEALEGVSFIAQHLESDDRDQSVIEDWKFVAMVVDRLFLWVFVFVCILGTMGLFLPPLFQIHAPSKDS

[6] = biological target: T3, Neuronal acetylcholine receptor; alpha4/beta2 (Homo sapiens, UniProt P17787+P43681); assay: Change in membrane potential in K-177 cells expressing acetylcholine central neuronal receptor alpha4-beta2 subunits; type: functional, cell-based
T3 sequence (P17787 whole entry): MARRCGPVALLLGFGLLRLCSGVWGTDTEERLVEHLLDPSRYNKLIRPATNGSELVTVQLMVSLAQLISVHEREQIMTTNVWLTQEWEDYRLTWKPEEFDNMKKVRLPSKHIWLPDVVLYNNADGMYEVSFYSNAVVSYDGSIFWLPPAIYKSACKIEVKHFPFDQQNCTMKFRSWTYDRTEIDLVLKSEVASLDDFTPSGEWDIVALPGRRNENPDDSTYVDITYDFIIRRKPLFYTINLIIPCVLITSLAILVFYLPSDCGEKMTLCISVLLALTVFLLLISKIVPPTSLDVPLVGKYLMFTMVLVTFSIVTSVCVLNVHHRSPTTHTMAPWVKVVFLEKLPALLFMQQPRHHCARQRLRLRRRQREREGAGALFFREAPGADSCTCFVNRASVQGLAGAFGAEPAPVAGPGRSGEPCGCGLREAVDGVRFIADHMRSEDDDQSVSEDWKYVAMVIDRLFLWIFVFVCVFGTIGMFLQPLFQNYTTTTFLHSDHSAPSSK
T3 sequence (P43681 whole entry): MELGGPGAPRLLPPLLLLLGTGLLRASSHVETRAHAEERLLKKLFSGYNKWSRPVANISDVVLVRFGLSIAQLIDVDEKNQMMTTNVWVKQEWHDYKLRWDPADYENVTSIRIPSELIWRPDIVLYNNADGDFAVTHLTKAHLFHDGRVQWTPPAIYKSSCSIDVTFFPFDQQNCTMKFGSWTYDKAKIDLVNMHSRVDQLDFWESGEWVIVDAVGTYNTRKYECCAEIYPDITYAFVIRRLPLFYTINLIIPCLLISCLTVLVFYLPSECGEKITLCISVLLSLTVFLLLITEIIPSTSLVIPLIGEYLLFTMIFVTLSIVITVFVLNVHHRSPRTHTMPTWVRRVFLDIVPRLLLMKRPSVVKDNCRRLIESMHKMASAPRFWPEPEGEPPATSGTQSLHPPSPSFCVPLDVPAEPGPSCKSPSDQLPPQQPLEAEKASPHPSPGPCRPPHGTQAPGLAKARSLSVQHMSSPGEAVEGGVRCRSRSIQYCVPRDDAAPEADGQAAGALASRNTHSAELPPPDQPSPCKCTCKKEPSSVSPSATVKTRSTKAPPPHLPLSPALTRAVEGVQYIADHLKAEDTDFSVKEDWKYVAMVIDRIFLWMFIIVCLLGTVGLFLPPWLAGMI

[7] = biological target: T3, Neuronal acetylcholine receptor; alpha4/beta2; assay: Percentage efficacy in K-177 cells expressing acetylcholine central neuronal receptor type alpha-4 beta2 subunits as change in membrane potential; type: functional, cell-based
[8] = biological target: T1, Neuronal acetylcholine receptor; alpha3/beta4 (Rattus norvegicus); assay: Percentage efficacy in KXalpha-3-beta-4R2 cells expressing rat nicotinic acetylcholine receptor alpha-3 beta4 subunits relative to (1)-epibatidine; type: functional, cell-based

Row | SMILES | Affinity [1] [nM] | Affinity [2] [nM] | EC50 [3] [nM] | Efficacy [4] [%] | EC50 [5] [nM] | EC50 [6] [nM] | Efficacy [7] [%] | Efficacy [8] [%]
1 | O=c1ccc(Br)c2n1CC1CNCC2C1 (configuration not stated) | 380 | 0.308 | > 100 | < 10 | 39 | 1.1 | 70 | 
2 | O=c1c(Cl)ccc2n1CC1CNCC2C1 (configuration not stated) | 18 | 0.022 | 28 | 53 | 5.1 | 0.11 | 72 | 71
3 | Clc1ccc(C2CC3CCC2N3)cn1 (configuration not stated) [EPIBATIDINE] | 0.51 | 0.0072 | 0.053 | 100 |  |  | 100 | 
4 | O=c1ccc(Cl)c2n1CC1CNCC2C1 (configuration not stated) | 3900 | 2.5 | > 100 | < 10 | > 100 | 4 | 58 | < 10
5 | S=c1cccc2n1CC1CNCC2C1 (configuration not stated) | 27000 | 0.832 | > 100 | < 10 | > 100 | 2.2 | 28 | 10
6 | O=c1cccc2n1C[C@@H]1CNC[C@H]2C1 [CYTISINICLINE] | 220 | 0.124 | 11 | 55 | 25 | 0.42 | 59 | 62
7 | O=c1c(Br)ccc2n1CC1CNCC2C1 (configuration not stated) | 7.5 | 0.01 | 31 | 59 | 0.88 | 0.05 | 85 | 74
8 | O=c1c(Br)cc(Br)c2n1CC1CNCC2C1 (configuration not stated) | 45000 | 10.8 | > 100 | < 10 | > 100 | > 100 | 23 | < 10
9 | O=c1c(Cl)cc(Cl)c2n1CC1CNCC2C1 (configuration not stated) | 39000 | 2.5 | > 100 | 23 | > 100 | > 100 | 20 | < 10
10 | C[N+]1(C)CC2CC(C1)c1cccc(=O)n1C2 (configuration not stated) | 1500 | 0.238 | 37 | 60 | > 100 | 41 | 70 | 29
11 | O=c1c(I)ccc2n1CC1CNCC2C1 (configuration not stated) | 7.4 | 0.017 | 45 | 46 | 0.55 | 0.036 | 92 | 78
12 | O=c1c(I)cc(I)c2n1CC1CNCC2C1 (configuration not stated) | 4200 | 0.52 | > 100 | < 10 | > 100000 | 42 | 42 | < 10
